The subject of data set [1] is oligo-1: d(CGCGAATTCGCG)2. The data set can be described thus: Fluorescence titration. Format: binding. The conditions noted are these: 20 °C, pH 7.2.
Data set [2] relates to oligo-2: d(CGATGTACATCG)2. The data set can be described thus: Fluorescence titration. Format: binding. To be noted: 20 °C, pH 7.2.
The nature of data set [3]: Behaviour of HCl salt in cell culture media. The data set is classed as physicochemical.

Consider `CCOc1ccc(-c2nc3cc(-c4nc5cc(N6CCN(C)CC6)ccc5[nH]4)ccc3[nH]2)cc1OCC` [10a, 2-(2-(3,4-Diethoxyphenyl)-1H-benzo[d]imidazol-5-yl)-5-(4-methylpiperazin-1-yl)-1H-benzo[d]imidazole], for which the “Ka binding affinity with oligo-1” value in data set [1] is given as 7 × 10^6 M^–1. In addition, the “Ka binding affinity with oligo-2” value in data set [2] is recorded as 2 × 10^6 M^1.
The like results for `CN1CCN(c2ccc3[nH]c(-c4ccc5[nH]c(-c6ccc(C(F)(F)F)cc6)nc5c4)nc3c2)CC1` [10b, 5-(4-Methylpiperazin-1-yl)-2′-(4-(trifluoromethyl)phenyl)-1H,1′H-2,5′-Bibenzo[d]imidazole] were, in that order, 7 × 10^6 M^–1 and 3 × 10^6 M^1.
`COc1ccc(OC)c(-c2nc3ccc(-c4nc5ccc(N6CCN(C)CC6)cc5[nH]4)cc3[nH]2)c1` [10c, 2′-(2,5-Dimethoxyphenyl)-6-(4-methylpiperazin-1-yl)-1H,3′H-2,5′-bibenzo[d]imidazole]: in data set [1], the “Ka binding affinity with oligo-1” value is 8 × 10^6 M^–1. The “Ka binding affinity with oligo-2” value in data set [2] is on record as 2 × 10^6 M^1.
With `CCCN1CCN(c2ccc3[nH]c(-c4ccc5[nH]c(-c6ccc(C(F)(F)F)cc6)nc5c4)nc3c2)CC1` [11b, 2-(4-(Trifluoromethyl)phenyl)-5-(5-(4-propylpiperazin-1-yl)-1H-benzo[d]imidazol-2-yl)-1H-benzo[d]imidazole], the “Ka binding affinity with oligo-1” value in data set [1] is recorded as 7 × 10^6 M^–1. For the same molecule, the “Ka binding affinity with oligo-2” value in data set [2] is 2 × 10^6 M^1.
Consider `CCCN1CCN(c2ccc3nc(-c4ccc5nc(-c6cc(OC)ccc6OC)[nH]c5c4)[nH]c3c2)CC1` [11c, 2′-(2,5-Dimethoxyphenyl)-6-(4-propylpiperazin-1-yl)-1H,3′H-2,5′-bibenzo[d]imidazole], for which the “Ka binding affinity with oligo-1” value in data set [1] is 7 × 10^6 M^–1. Also, the “Ka binding affinity with oligo-2” value in data set [2] was 3 × 10^6 M^1.
Take `CCCN1CCN(c2ccc3[nH]c(-c4ccc5[nH]c(-c6cc(OC)c(OC)c(OC)c6)nc5c4)nc3c2)CC1` [11d, 5-(4-Propylpiperazin-1-yl)-2′-(3,4,5-trimethoxyphenyl)-1H,1′H-2,5′-bibenzo[d]imidazole]: the “Ka binding affinity with oligo-2” value in data set [2] was 1 × 10^6 M^1.
The same measure, in the same setting: the value for `CCCCN1CCN(c2ccc3nc(-c4ccc5nc(-c6cc(OC)ccc6OC)[nH]c5c4)[nH]c3c2)CC1` [12c, 6-(4-Butylpiperazin-1-yl)-2′-(2,5-dimethoxyphenyl)-1H,3′H-2,5′-bibenzo[d]imidazole] was 2 × 10^6 M^1.
Still for that read-out and setting: the value for `CCCCN1CCN(c2ccc3[nH]c(-c4ccc5[nH]c(-c6cc(OC)c(OC)c(OC)c6)nc5c4)nc3c2)CC1` [12d, 5-(4-Butylpiperazin-1-yl)-2-(2-(3,4,5-trimethoxyphenyl)-1H-benzo[d]imidazol-5-yl)-1H-benzo[d]imidazole] was 4 × 10^6 M^1.
Take `CCCCN1CCN(c2ccc3[nH]c(-c4ccc5[nH]c(-c6ccc(OCC)cc6)nc5c4)nc3c2)CC1` [12e, 5-(4-Butylpiperazin-1-yl)-2′-(4-ethoxyphenyl)-1H,1′H-2,5′-bibenzo[d]imidazole]: in data set [1], the “Ka binding affinity with oligo-1” value is recorded as 1 × 10^7 M^–1. Further, the “Ka binding affinity with oligo-2” value in data set [2] is 3 × 10^6 M^1.
For the molecule `CCOc1ccc(-c2nc3ccc(-c4nc5ccc(N6CCN(CCN(C)C)CC6)cc5[nH]4)cc3[nH]2)cc1OCC` [13a, 2-(4-(2′-(3,4-Diethoxyphenyl)-1H,3′H-[2,5′-bibenzo[d]imidazol]-6-yl)piperazin-1-yl)N,N-dimethylethan-1-amine], the “Ka binding affinity with oligo-1” value in data set [1] is reported as 9 × 10^6 M^–1. Further, the “Ka binding affinity with oligo-2” value in data set [2] was 2 × 10^6 M^1. Besides, the “behaviour of HCl salt in cell culture media” value in data set [3] is “precipitating in cell culture media”.
As for `COc1ccc(OC)c(-c2nc3ccc(-c4nc5ccc(N6CCN(CCN(C)C)CC6)cc5[nH]4)cc3[nH]2)c1` [13c, 2-(4-(2′-(2,5-Dimethoxyphenyl)-1H,3′H-[2,5′-bibenzo[d]imidazol]-6-yl)piperazin-1-yl)-N,N-dimethylethan-1-amine], in data set [1], the “Ka binding affinity with oligo-1” value is 5 × 10^6 M^–1. In data set [2], the “Ka binding affinity with oligo-2” value was 1 × 10^6 M^1. In addition, the “behaviour of HCl salt in cell culture media” value in data set [3] is “precipitating in cell culture media”.
The like results for `COc1cc(-c2nc3ccc(-c4nc5ccc(N6CCN(CCN(C)C)CC6)cc5[nH]4)cc3[nH]2)cc(OC)c1OC` [13d, 2-(4-(2′-(3,4,5-Trimethoxyphenyl)-1H,3′H-[2,5′-bibenzo[d]imidazol]-6-yl)piperazin-1-yl) N,N-Dimethylethan-1-amine] were, in that order, 5 × 10^6 M^–1, 1 × 10^6 M^1 and “precipitating in cell culture media”.
In the case of `CCOc1ccc(-c2nc3ccc(-c4nc5ccc(N6CCN(C)CC6)cc5[nH]4)cc3[nH]2)cc1` [Hoechst 33342, reference compound], the “Ka binding affinity with oligo-1” value in data set [1] is recorded as 2 × 10^7 M^–1. Moreover, in data set [2], the “Ka binding affinity with oligo-2” value is listed as 5 × 10^6 M^1.

The values above are taken from PMC8793051 (ACS Omega, 2022).
